Source: BindingDB's records for doi:10.1021/cc060110n (University of Mississippi, 2007)

Experiments:
L-lactate dehydrogenase = L-lactate dehydrogenase (Plasmodium falciparum, UniProt B9UDZ5); assay: Enzyme Assay
Text: (§1) Enzyme assay using recombinant pfLDH and mLDH (bovine heart).

[1] = target: L-lactate dehydrogenase B chain (Bos taurus, UniProt Q5E9B1); assay: Enzyme Assay
Text: as §1

L-lactate dehydrogenase, sequence (B9UDZ5 whole entry): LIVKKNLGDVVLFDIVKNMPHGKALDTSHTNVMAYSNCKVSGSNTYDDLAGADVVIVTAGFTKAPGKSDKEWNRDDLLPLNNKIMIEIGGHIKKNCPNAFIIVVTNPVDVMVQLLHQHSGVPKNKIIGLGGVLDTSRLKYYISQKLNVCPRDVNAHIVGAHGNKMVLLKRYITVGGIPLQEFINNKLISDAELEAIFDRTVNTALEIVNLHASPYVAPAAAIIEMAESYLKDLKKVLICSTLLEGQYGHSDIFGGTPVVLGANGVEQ
L-lactate dehydrogenase B chain, sequence (Q5E9B1 whole entry): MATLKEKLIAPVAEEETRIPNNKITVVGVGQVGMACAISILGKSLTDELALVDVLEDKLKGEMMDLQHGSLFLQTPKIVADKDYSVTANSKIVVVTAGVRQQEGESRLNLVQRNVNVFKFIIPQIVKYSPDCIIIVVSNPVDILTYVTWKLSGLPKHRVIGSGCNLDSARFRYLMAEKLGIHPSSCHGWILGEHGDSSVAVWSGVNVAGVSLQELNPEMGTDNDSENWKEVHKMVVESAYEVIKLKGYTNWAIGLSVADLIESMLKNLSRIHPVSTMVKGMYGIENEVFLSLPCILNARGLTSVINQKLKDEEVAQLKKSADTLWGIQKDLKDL

Row | Compound | IC50 (L-lactate dehydrogenase) [µM] | IC50 [1] [µM]
1 | Cc1cccc(N(C(=O)C(=O)O)c2ccccc2)c1 [Oxamic Acid/Ester, 7] | 97.9 | 107
2 | CCc1ccccc1N(Cc1ccccc1)C(=O)C(=O)O [Oxamic Acid/Ester, 8] | > 200 | 158
3 | O=C(O)C(=O)NCCC(c1ccccc1)c1ccccc1 [Oxamic Acid/Ester, 36] | 35 | 90
4 | CCCCCCNC(=O)C(=O)O [Oxamic Acid/Ester, 23] | 47 | 133
5 | CCCCCCCCCNC(=O)C(=O)O [Oxamic Acid/Ester, 26] | 88 | > 200
6 | O=C(O)C(=O)NCCc1ccc(Br)cc1 [Oxamic Acid/Ester, 42] | 51 | > 200
7 | CC(C)c1ccc2c(c1)CCC1[C@](C)(CNC(=O)C(=O)O)CCC[C@]21C (stereo partly drawn) [Oxamic Acid/Ester, 18] | 59 | 20
8 | C=CCN(C(=O)C(=O)O)C1CCCCC1 [Oxamic Acid/Ester, 29] | > 200 | > 200
9 | O=C(O)C(=O)N1CCN(c2ccccc2)CC1 [Oxamic Acid/Ester, 27] | > 200 | 32
10 | COCCNC(=O)C(=O)O [Oxamic Acid/Ester, 21] | 14 | 25
11 | CCC(C)NC(=O)C(=O)O (stereo not drawn) [Oxamic Acid/Ester, 31] | > 200 | > 200
12 | CC(NC(=O)C(=O)O)c1cccc2c1CCCC2 (stereo not drawn) [Oxamic Acid/Ester, 38] | 146 | > 200
13 | COc1ccccc1NC(=O)C(=O)O [Oxamic Acid/Ester, 6] | > 200 | > 200
14 | Cc1ccc(CNC(=O)C(=O)O)o1 [Oxamic Acid/Ester, 15] | > 200 | > 200
15 | CN(Cc1ccco1)C(=O)C(=O)O [Oxamic Acid/Ester, 16] | > 200 | 186
16 | O=C(O)C(=O)NCCCCc1ccccc1 [Oxamic Acid/Ester, 41] | 41 | 88
17 | CC(C)CCNC(=O)C(=O)O [Oxamic Acid/Ester, 34] | 157 | > 200
18 | C=CCN(C)C(=O)C(=O)O [Oxamic Acid/Ester, 11] | > 200 | > 200
19 | O=C(O)C(=O)N(Cc1ccccc1)c1ccccc1 [Oxamic Acid/Ester, 22] | > 200 | > 200

Row | Compound | IC50 (L-lactate dehydrogenase) [µM] | IC50 [1] [µM]
20 | CN(Cc1ccccc1)C(=O)C(=O)O [Oxamic Acid/Ester, 30] | > 200 | 168
21 | O=C(O)C(=O)N1CCN(Cc2ccccc2)CC1 [Oxamic Acid/Ester, 19] | 169 | 46
22 | O=C(O)C(=O)NCc1ccco1 [Oxamic Acid/Ester, 39] | > 200 | > 200
23 | COCCCNC(=O)C(=O)O [Oxamic Acid/Ester, 25] | 43 | 31
24 | CCCCCCCCCCCCCCCCNC(=O)C(=O)O [Oxamic Acid/Ester, 14] | > 200 | 150
25 | O=C(O)C(=O)NCc1cccc2ccccc12 [Oxamic Acid/Ester, 17] | 43 | > 200
26 | NC(=O)C(=O)O [carbamoylformic acid] | 94.4 | –
27 | CCCCCN(C)C(=O)C(=O)O [Oxamic Acid/Ester, 28] | > 200 | > 200
28 | O=C(O)C(=O)N(Cc1ccccc1)Cc1ccccc1 [Oxamic Acid/Ester, 32] | > 200 | > 200
29 | CC(C)CNC(=O)C(=O)O [Oxamic Acid/Ester, 40] | > 200 | > 200
30 | O=C(O)C(=O)NCC1CCCO1 (stereo not drawn) [Oxamic Acid/Ester, 35] | 188 | > 200
31 | O=C(O)C(=O)N1CCC(Cc2ccccc2)CC1 [Oxamic Acid/Ester, 20] | 101 | 59
32 | Cc1cc2c(C(C)C)c(O)c(O)c(C=O)c2c(O)c1-c1c(C)cc2c(C(C)C)c(O)c(O)c(C=O)c2c1O [Tash 1] | 3.97 | 6.9
33 | CCCCNC(=O)C(=O)O [Oxamic Acid/Ester, 12] | > 200 | > 200
34 | CSc1cccc(NC(=O)C(=O)O)c1 [Oxamic Acid/Ester, 37] | > 200 | > 200
35 | CC1CCCCN1C(=O)C(=O)O (stereo not drawn) [Oxamic Acid/Ester, 33] | > 200 | 43
36 | CCCCCCCNC(=O)C(=O)O [Oxamic Acid/Ester, 10] | 160 | > 200
37 | CN(C(=O)C(=O)O)c1ccccc1 [Oxamic Acid/Ester, 24] | > 200 | > 200
